Reference: patent US6337346B1 (University of North Carolina at Chapel Hill, priority 1998, dated 2002)
Values after ≈ are worked out from the molar mass of the structure shown. Read-outs that look alike come from different tables or passages of the source.

What was measured:
[1] = system: human tumor cell lines
Excerpt: (§1) (Activity is defined as log GI50<−4 where GI50 is the molar concentration causing 50% cell growth inhibition).

[2] = system: human tumor cell lines; assay: NCI in vitro screen, mean over all cell lines tested; conditions: for GI50: Homo sapiens, read-out: Cytotoxicity log GI50, Mean Value (converted); for Cytotoxicity log GI50, Mean Value: Mean value over all cell lines tested (58 human tumor cell lines), Table 2 (numbering of Examples 1-13)
Excerpt: as §1

[3] = system: SK-MEL-5; assay: NCI in vitro disease-oriented tumor cells screen; type: cell-based, human; conditions: Melanoma SK-MEL-5, Table 2 (numbering of Examples 1-13), average of at least two testings; for GI50: Homo sapiens, read-out: Cytotoxicity log GI50 (converted)
Excerpt: as §1

[4] = system: BT-549; assay: NCI in vitro disease-oriented tumor cells screen; type: cell-based, human; conditions: Breast Cancer BT-549, Table 2, average of at least two testings; for GI50: Homo sapiens, read-out: Cytotoxicity log GI50 (converted)
Excerpt: as §1

[5] = system: HS 578T; assay: NCI in vitro disease-oriented tumor cells screen; type: cell-based, human; conditions: Breast Cancer HS 578T, Table 2, average of at least two testings; for GI50: Homo sapiens, read-out: Cytotoxicity log GI50 (converted)
Excerpt: as §1

[6] = system: OVCAR-8; assay: NCI in vitro disease-oriented tumor cells screen; type: cell-based, human; conditions: Ovarian Cancer OVCAR-8, Table 2, average of at least two testings; for GI50: Homo sapiens, read-out: Cytotoxicity log GI50 (converted)
Excerpt: as §1

[7] = system: NCI-H522; assay: NCI in vitro disease-oriented tumor cells screen; type: cell-based, human; conditions: Non-Small Cell Lung Cancer NCI-H522, Table 2, average of at least two testings; for GI50: Homo sapiens, read-out: Cytotoxicity log GI50 (converted)
Excerpt: as §1

[8] = system: LOX IMVI; assay: NCI in vitro disease-oriented tumor cells screen; type: cell-based, human; conditions: Melanoma LOX IMVI, Table 2 (numbering of Examples 1-13), average of at least two testings; for GI50: Homo sapiens, read-out: Cytotoxicity log GI50 (converted)
Excerpt: as §1

[9] = system: M14; assay: NCI in vitro disease-oriented tumor cells screen; type: cell-based, human; conditions: Melanoma M14, Table 2, average of at least two testings; for GI50: Homo sapiens, read-out: Cytotoxicity log GI50 (converted)
Excerpt: as §1

[10] = system: OVCAR-3; assay: NCI in vitro disease-oriented tumor cells screen; type: cell-based, human; conditions: Ovarian Cancer OVCAR-3, Table 2 (numbering of Examples 1-13), average of at least two testings; for GI50: Homo sapiens, read-out: Cytotoxicity log GI50 (converted)
Excerpt: as §1

[11] = system: UACC-257; assay: NCI in vitro disease-oriented tumor cells screen; type: cell-based, human; conditions: Melanoma UACC-257, Table 2, average of at least two testings; for GI50: Homo sapiens, read-out: Cytotoxicity log GI50 (converted)
Excerpt: as §1

[12] = system: SK-MEL-28; assay: NCI in vitro disease-oriented tumor cells screen; type: cell-based, human; conditions: Melanoma SK-MEL-28, Table 2, average of at least two testings; for GI50: Homo sapiens, read-out: Cytotoxicity log GI50 (converted)
Excerpt: as §1

[13] = system: NCI-H23; assay: NCI in vitro disease-oriented tumor cells screen; type: cell-based, human; conditions: Non-Small Cell Lung Cancer NCI-H23, Table 2 (numbering of Examples 1-13), average of at least two testings; for GI50: Homo sapiens, read-out: Cytotoxicity log GI50 (converted)
Excerpt: as §1

[14] = system: HL-60(TB); assay: NCI in vitro disease-oriented tumor cells screen; type: cell-based, human; conditions: Leukemia HL-60(TB), Table 2, average of at least two testings; for GI50: Homo sapiens, read-out: Cytotoxicity log GI50 (converted)
Excerpt: as §1

[15] = system: MDA-MB-435; assay: NCI in vitro disease-oriented tumor cells screen; type: cell-based, human; conditions: Breast Cancer MDA-MB-435, Table 2 (numbering of Examples 1-13), average of at least two testings; for GI50: Homo sapiens, read-out: Cytotoxicity log GI50 (converted)
Excerpt: as §1

[16] = system: SK-MEL-2; assay: NCI in vitro disease-oriented tumor cells screen; type: cell-based, human; conditions: Melanoma SK-MEL-2, Table 2, average of at least two testings; for GI50: Homo sapiens, read-out: Cytotoxicity log GI50 (converted)
Excerpt: as §1

[17] = system: MDA-N; assay: NCI in vitro disease-oriented tumor cells screen; type: cell-based, human; conditions: Breast Cancer MDA-N, Table 2 (numbering of Examples 1-13), average of at least two testings; for GI50: Homo sapiens, read-out: Cytotoxicity log GI50 (converted)
Excerpt: as §1

[18] = system: UACC-62; assay: NCI in vitro disease-oriented tumor cells screen; type: cell-based, human; conditions: Melanoma UACC-62, Table 2, average of at least two testings; for GI50: Homo sapiens, read-out: Cytotoxicity log GI50 (converted)
Excerpt: as §1

[19] = system: MALME-3M; assay: NCI in vitro disease-oriented tumor cells screen; type: cell-based, human; conditions: Melanoma MALME-3M, Table 2, average of at least two testings; for GI50: Homo sapiens, read-out: Cytotoxicity log GI50 (converted)
Excerpt: as §1

[20] = system: KB cells; conditions: cited from earlier work; for ED50: KB cells, background, numbering of Examples 1-13

Row | SMILES | overall cytotoxicity / potency (in words) [1] | GI50 [2] | GI50 [3] | GI50 [4] | GI50 [5] | GI50 [6] | GI50 [7] | GI50 [8] | GI50 [9] | GI50 [10] | GI50 [11] | GI50 [12] | GI50 [13] | GI50 [14] | GI50 [15] | GI50 [16] | GI50 [17] | GI50 [18] | GI50 [19] | other results
1 | CC(=O)c1cc2c(s1)C(=O)c1c(C(C)=O)csc1C2=O [Compound 13, 2,7-Diacetyl-4,8-dihydrobenzo[1,2-b:4,5-b′]dithiophene-4,8-dione] | less active in all cell lines | 1170 nM | 1200 nM | 1740 nM | 2400 nM | 1450 nM | 525 nM | 1050 nM | 1510 nM | 229 nM | 562 nM | 1780 nM | 1320 nM | 52.5 nM | 178 nM | 1740 nM | 174 nM | 1950 nM | 1320 nM | –
2 | CC(O)c1cc2c(s1)C(=O)c1sccc1C2=O (stereo not drawn) [Compound 20, 2-(1′-Hydroxyethyl)-4,8-dihydrobenzo[1,2-b:5,4-b′]dithiophene-4,8-dione] | excellent overall cytotoxicity | 135 nM | 13.5 nM | 34.7 nM | 57.5 nM | 162 nM | 123 nM | 24 nM | 14.8 nM | 117 nM | 18.2 nM | 38.9 nM | 15.5 nM | 69.2 nM | 16.2 nM | 30.9 nM | 18.6 nM | 22.4 nM | 19.1 nM | melting point: 170 to 172 °C
3 | CC(=O)c1cc2c(o1)C(=O)c1ccccc1C2=O [Compound 2, 2-acetyl-4H, 9H-naphtho[2,3-b]furan-4,9-dione] | – | – | – | – | – | – | – | – | – | – | – | – | – | – | – | – | – | – | – | EC50 ([20]; KB cell culture assay, numbering of Examples 14-16, read-out: ED50 (the source's name)): 4200 nM; ED50 [20]: 2.0 µg/mL (≈ 8.33 µM)
4 | CC(=O)OC(C)c1cc2c(s1)C(=O)c1ccsc1C2=O (stereo not drawn) [Compound 11, 2-(1′-Acetoxyethyl)-4,8-dihydrobenzo[1,2-b:4,5-b′]dithiophene-4,8-dione] | – | 39.8 nM | 13.5 nM | 45.7 nM | 155 nM | 36.3 nM | 148 nM | < 10 nM | 12.9 nM | < 10 nM | 25.1 nM | 19.1 nM | 11.2 nM | < 10 nM | < 10 nM | 26.3 nM | < 10 nM | 17 nM | < 10 nM | Cytotoxicity log GI50, Mean Value ([1]; human): −7.40 M
5 | O=C1c2c(O)ccc(O)c2C(=O)c2c(NCCNCCO)ccc(NCCNCCO)c21 [Compound 1, mitoxantrone] | – | – | – | – | – | – | – | – | – | – | – | – | – | – | – | – | – | – | – | ED50 [20]: 1.0 µg/mL (≈ 2.25 µM)
6 | CC(O)c1cc2c(s1)C(=O)c1sc(C(C)O)cc1C2=O (stereo not drawn) [Compound 24] | – | – | – | – | – | – | – | – | – | – | – | – | – | – | – | – | – | – | – | Cytotoxicity log GI50, Mean Value [2]: −6.32 M; Cytotoxicity log GI50 [3]: −6.85 M; Cytotoxicity log GI50 [4]: −6.71 M; Cytotoxicity log GI50 [5]: −6.50 M; Cytotoxicity log GI50 [6]: −6.58 M; Cytotoxicity log GI50 [7]: −6.40 M; Cytotoxicity log GI50 [8]: −6.92 M; Cytotoxicity log GI50 [9]: −6.81 M; Cytotoxicity log GI50 [10]: −6.44 M; Cytotoxicity log GI50 [11]: −6.79 M; Cytotoxicity log GI50 [12]: −6.63 M; Cytotoxicity log GI50 [13]: −6.72 M; Cytotoxicity log GI50 [14]: −6.36 M; Cytotoxicity log GI50 [15]: −6.80 M; Cytotoxicity log GI50 [16]: −6.69 M; Cytotoxicity log GI50 [17]: −6.83 M; Cytotoxicity log GI50 [18]: −6.61 M; Cytotoxicity log GI50 [19]: −6.82 M
7 | CC(=O)c1cc2c(s1)C(=O)c1sc(C(C)=O)cc1C2=O [Compound 23] | – | – | – | – | – | – | – | – | – | – | – | – | – | – | – | – | – | – | – | Cytotoxicity log GI50, Mean Value [2]: −6.47 M; Cytotoxicity log GI50 [3]: −6.50 M; Cytotoxicity log GI50 [4]: −6.04 M; Cytotoxicity log GI50 [5]: −6.55 M; Cytotoxicity log GI50 [6]: −6.64 M; Cytotoxicity log GI50 [7]: −6.42 M; Cytotoxicity log GI50 [8]: −7.65 M; Cytotoxicity log GI50 [9]: −6.36 M; Cytotoxicity log GI50 [10]: −7.53 M; Cytotoxicity log GI50 [11]: −6.78 M; Cytotoxicity log GI50 [12]: −6.69 M; Cytotoxicity log GI50 [13]: −6.54 M; Cytotoxicity log GI50 [15]: −6.64 M; Cytotoxicity log GI50 [16]: −6.79 M; Cytotoxicity log GI50 [17]: −6.71 M; Cytotoxicity log GI50 [18]: −6.63 M; Cytotoxicity log GI50 [19]: −6.65 M
8 | CC(=O)c1cc2c(s1)C(=O)c1sccc1C2=O [Compound 19, 2-Acetyl-4,8-dihydrobenzo[1,2-b:5,4-b′]dithiophene-4,8-dione] | – | 46.8 nM | < 10 nM | 17.8 nM | 36.3 nM | 30.9 nM | 17.4 nM | < 10 nM | 17.4 nM | < 10 nM | 13.8 nM | < 10 nM | 18.2 nM | – | < 10 nM | 33.1 nM | < 10 nM | 17 nM | 16.2 nM | –
9 | O=C1c2ccccc2C(=O)c2sccc21 [Compound 4, naphtho[2,3-b]thiophene-4,9-dione] | – | – | – | – | – | – | – | – | – | – | – | – | – | – | – | – | – | – | – | ED50 [20]: 1.4 µg/mL (≈ 6.53 µM)
10 | CC(O)c1cc2c(s1)C(=O)c1c(C(C)O)csc1C2=O (stereo not drawn) [Compound 14, 2,7-Bis(1′-hydroxyethyl)-4,8-dihydrobenzo [1,2-b:4,5-b′]dithiophene-4,8-dione] | overall cytotoxicity comparable to the monosubstituted compounds | 148 nM | 12.6 nM | 162 nM | 316 nM | 219 nM | 302 nM | 55 nM | 57.5 nM | 11.7 nM | 61.7 nM | 186 nM | 33.9 nM | 11.2 nM | 17.8 nM | 112 nM | 20.9 nM | 32.4 nM | 27.5 nM | –
11 | CC(=O)OC(C)c1cc2c(s1)C(=O)c1sccc1C2=O (stereo not drawn) [Compound 21, 2-(1′-Acetoxyethyl)-4,8-dihydrobenzo[1,2-b:5,4-b′]dithiophene-4,8-dione] | among the least active | 794 nM | 107 nM | 282 nM | 513 nM | 1410 nM | 871 nM | 209 nM | 162 nM | 490 nM | 214 nM | 646 nM | 219 nM | 1740 nM | 182 nM | 417 nM | 19.1 nM | 1380 nM | 120 nM | melting point: 165 to 166 °C
